Among the data in patent US20100168102A9, “Amide Derivatives as Kinase Inhibitors” (Devgen NV, priority 2005, published 2010) are IC50 values, retold here.

In one assay the target is T1, human ROCKα/ROCKII mix (Homo sapiens, UniProt O75116).
T1 construct: purchased Upstate Biotechnology 14-451
In words: Biochemical assay for ROCK (fluorescence polarization, ROCK IMAP Kit). On the technique in general: In fluorescence polarisation assays a small probe gives low polarisation when free and higher when bound to something large.

The target of the next assay is T2, PKC epsilon (Homo sapiens, UniProt Q02156).
T2 construct: purchased Invitrogen P2282
T2 sequence (Q02156 1-737): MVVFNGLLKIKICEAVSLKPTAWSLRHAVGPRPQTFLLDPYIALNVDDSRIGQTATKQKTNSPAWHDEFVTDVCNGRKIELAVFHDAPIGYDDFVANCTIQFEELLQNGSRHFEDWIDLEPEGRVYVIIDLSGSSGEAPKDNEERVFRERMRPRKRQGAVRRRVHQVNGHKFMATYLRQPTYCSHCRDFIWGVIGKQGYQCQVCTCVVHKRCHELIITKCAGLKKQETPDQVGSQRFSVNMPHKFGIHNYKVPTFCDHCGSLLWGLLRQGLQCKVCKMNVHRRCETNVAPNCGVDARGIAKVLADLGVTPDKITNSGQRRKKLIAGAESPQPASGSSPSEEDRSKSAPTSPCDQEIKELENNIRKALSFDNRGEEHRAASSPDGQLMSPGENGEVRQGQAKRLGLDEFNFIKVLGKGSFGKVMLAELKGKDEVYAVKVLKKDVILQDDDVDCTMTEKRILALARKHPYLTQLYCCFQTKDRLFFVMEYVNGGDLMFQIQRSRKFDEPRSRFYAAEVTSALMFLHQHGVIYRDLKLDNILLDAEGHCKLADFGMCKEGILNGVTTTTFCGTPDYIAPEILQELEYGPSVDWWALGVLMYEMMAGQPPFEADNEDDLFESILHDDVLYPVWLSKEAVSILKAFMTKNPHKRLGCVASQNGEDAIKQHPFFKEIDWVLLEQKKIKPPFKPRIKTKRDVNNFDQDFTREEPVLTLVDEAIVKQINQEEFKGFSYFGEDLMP
Put plainly: Biochemical assay for PKC epsilon (fluorescence polarization, Protein Kinase C Assay Kit, Red). Particulars: read-out: IC50 μM PKCε. In a few lines:
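PKC epsilon at 10 ng/ml final was preincubated 30 min at room temperature with compound in HEPES pH 7.4 with DTT and Triton X-100. ATP/protein substrate was then added in buffer with MgCl2 and CaCl2 for 80 min. The reaction was stopped with EDTA, phosphorylation was detected by fluorescence polarization with rhodamine tracer and anti-phosphoserine antibody, and IC50 values came from curve fits.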

Setting [1] is: compounds of Formula XIV, Table 3.
Where [2] appears, read: Table 2, compounds of Formula XIII.

Like-named read-outs stand apart in the source and are kept apart here.

T1 sequence (O75116 11-552 limits assumed): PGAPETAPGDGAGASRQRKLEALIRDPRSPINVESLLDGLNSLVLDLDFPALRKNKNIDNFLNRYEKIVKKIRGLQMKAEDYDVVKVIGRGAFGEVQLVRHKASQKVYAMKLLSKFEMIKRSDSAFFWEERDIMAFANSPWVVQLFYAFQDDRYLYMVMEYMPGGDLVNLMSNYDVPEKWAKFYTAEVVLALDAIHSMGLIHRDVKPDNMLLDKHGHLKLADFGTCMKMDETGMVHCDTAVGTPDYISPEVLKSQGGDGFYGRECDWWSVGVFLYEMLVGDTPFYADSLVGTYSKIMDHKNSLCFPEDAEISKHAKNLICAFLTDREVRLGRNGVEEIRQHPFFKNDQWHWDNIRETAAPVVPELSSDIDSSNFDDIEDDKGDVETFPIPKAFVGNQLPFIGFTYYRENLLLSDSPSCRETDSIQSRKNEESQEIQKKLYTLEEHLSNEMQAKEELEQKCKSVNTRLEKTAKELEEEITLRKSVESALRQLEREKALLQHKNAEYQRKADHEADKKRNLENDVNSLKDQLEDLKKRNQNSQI

Turning to “4-(1-Amino-2-{[2-(4-fluoro- phenyl)-acetyl]-methyl- amino}-ethyl)- N-pyridin-4-yl-benzamide [Compound 471]”, the values for the half-maximal inhibitory concentration (IC50) at human ROCKα/ROCKII mix and on PKC epsilon were 0.5 to 5 µM and 5 to 50 µM, respectively.

Turning to `NC(CC(=O)NCc1cccc(F)c1)c1ccc(C(=O)Nc2ccncc2)cc1` (centres unmarked) [Compound 257, 4-[1-Amino-2-(3-fluoro-benzylcarbamoyl)-ethyl]-N-pyridin-4-yl-benzamide], the results for the IC50 against human ROCKα/ROCKII mix (setting [1]) and on PKC epsilon (setting [1]) were 0.05 to 0.5 µM and 0.5 to 5 µM, respectively.

As to `CC(C)C(C)NC(=O)CC(N)c1ccc(C(=O)Nc2ccncc2)cc1` (centres unmarked) [Compound 170, 4-[1-amino-2-(1,2-dimethyl-propylcarbamoyl)-ethyl]-N-pyridin-4-yl-benzamide], the IC50 (usually the point on the concentration scale where inhibition reaches its midpoint) is 0.05 to 0.5 µM at human ROCKα/ROCKII mix (setting [1]) and 0.5 to 5 µM on PKC epsilon (setting [1]).

With `NC(c1ccc(C(=O)Nc2ccncc2)cc1)C1CCCN1C(=O)C1(c2ccc(F)c(Cl)c2)CC1` (centres unmarked) [Compound 607, 4-(Amino-{1-[1-(3-chloro-4-fluoro-phenyl)-cyclopropanecarbonyl]-pyrrolidin-2-yl}-methyl)-N-pyridin-4-yl-benzamide], the IC50 at human ROCKα/ROCKII mix and at PKC epsilon was 0.5 to 5 µM in each case.

Take `NC(CC(=O)NCc1ccc(Cl)cc1Cl)c1ccc(C(=O)Nc2ccncc2)cc1` (centres unmarked) [Compound 252, 4-[1-Amino-2-(2,4-dichloro-benzylcarbamoyl)-ethyl]-N-pyridin-4-yl-benzamide]: the IC50 against human ROCKα/ROCKII mix (setting [1]) is 0.05 to 0.5 µM; at PKC epsilon (setting [1]), 0.5 to 5 µM.

For the compound `CC(C)CC(=O)NCC(N)c1ccc(C(=O)Nc2ccncc2)cc1` (centres unmarked) [Compound 34, 4-[1-Amino-2-(3-methyl-butyrylamino)-ethyl]-N-pyridin-4-yl-benzamide], the IC50 at human ROCKα/ROCKII mix (setting [2]) and at PKC epsilon (setting [2]) was 0.5 to 5 µM in each case.

As for `NC(c1ccc(C(=O)Nc2ccncc2)cc1)C1CCCN1C(=O)Cc1cccc(Cl)c1` (centres unmarked) [Compound 560, 4-(Amino-{1-[2-(3-chloro-phenyl)-acetyl]-pyrrolidin-2-yl}-methyl)-N-pyridin-4-yl-benzamide], the IC50 against human ROCKα/ROCKII mix was in the range of 0.5 to 5 µM; at PKC epsilon, 5 to 50 µM.

For `NC(c1ccc(C(=O)Nc2ccncc2)cc1)C1CCCN1C(=O)C(c1ccccc1)C1CCCC1` (centres unmarked) [Compound 556, 4-{Amino-[1-(2-cyclopentyl-2-phenyl-acetyl)-pyrrolidin-2-yl]-methyl}-N-pyridin-4-yl-benzamide], the IC50 at human ROCKα/ROCKII mix was in the range of 0.5 to 5 µM; at PKC epsilon, 5 to 50 µM.

Turning to `N[C@H](CC(=O)N[C@H]1COc2ccccc21)c1ccc(C(=O)Nc2ccncc2)cc1` [Compound 406, 4-{(R)-1-Amino-2-[(R)-(2,3-dihydro-benzofuran-3-yl)carbamoyl]-ethyl}-N-pyridin-4-yl-benzamide], the IC50 against human ROCKα/ROCKII mix and on PKC epsilon was 0.05 to 0.5 µM in each case.

Turning to `Cc1ccsc1C=NOCC(=O)NCC(N)c1ccc(C(=O)Nc2ccncc2)cc1` (centres unmarked) [Compound 61, 4-{1-Amino-2-[2-(3-methyl-thiophen-2-ylmethyleneaminooxy)-acetylamino]-ethyl}-N-pyridin-4-yl-benzamide], the half-inhibitory concentration (IC50) at human ROCKα/ROCKII mix (setting [2]) was in the range of 0.5 to 5 µM; on PKC epsilon (setting [2]), 5 to 50 µM.

In the case of `CN(CC(N)c1ccc(C(=O)Nc2ccncc2)cc1)C(=O)C1(c2ccc(F)c(F)c2)CCCC1` (centres unmarked) [Compound 488, 4-(1-Amino-2-{[1-(3,4-difluoro-phenyl)-cyclopentanecarbonyl]-methyl-amino}-ethyl)-N-pyridin-4-yl-benzamide], the IC50 on human ROCKα/ROCKII mix and at PKC epsilon was 0.5 to 5 µM each time.

`NC(CNC(=S)Nc1cccc2ccccc12)c1ccc(C(=O)Nc2ccncc2)cc1` (centres unmarked) [Compound 17, 4-[1-amino-2-(3-naphtalen-1-yl-thioureido)-ethyl]-N-pyridin-4-yl-benzamide]: the IC50 on human ROCKα/ROCKII mix and at PKC epsilon was 0.05 to 0.5 µM throughout.

Consider `NC(CNC(=O)c1cccc(Br)c1)c1ccc(C(=O)Nc2ccncc2)cc1` (centres unmarked) [Compound 91, 4-[1-amino-2-(3-bromo-benzoylamino)-ethyl]-N-pyridin-4-yl-benzamide], for which the IC50 against human ROCKα/ROCKII mix (setting [2]) and on PKC epsilon (setting [2]) was 0.5 to 5 µM in each case.

“4-{Amino-[1-(2-1H-indol-3-yl-acetyl)-pyrrolidin-2-yl]-methyl}-N-pyridin-4-yl-benzamide [Compound 545]”: the IC50 against human ROCKα/ROCKII mix was in the range of 0.05 to 0.5 µM; on PKC epsilon, 0.5 to 5 µM.

Take “4-{1-Amino-2-[(2- benzo[b]thiophen-3-yl- acetyl)-methyl- amino]-ethyl}- N-pyridin-4-yl-benzamide [Compound 444]”: the IC50 against human ROCKα/ROCKII mix was 0.5 to 5 µM; at PKC epsilon, 5 to 50 µM.

With `NC(CNC(=O)c1ccncc1)c1ccc(C(=O)Nc2ccncc2)cc1` (centres unmarked) [Compound 104, N-{2-Amino-2-[4-(pyridin-4-ylcarbamoyl)-phenyl]-ethyl}-isonicotinamide], the IC50 against human ROCKα/ROCKII mix (setting [2]) is 0.5 to 5 µM; at PKC epsilon (setting [2]) it was 5 to 50 µM.

Regarding `CN(CC(N)c1ccc(C(=O)Nc2ccncc2)cc1)C(=O)C1(c2ccc(Cl)cc2F)CC1` (centres unmarked) [Compound 504, 4-(1-Amino-2-{[1-(4-chloro-2-fluoro-phenyl)-cyclopropanecarbonyl]-methyl-amino}-ethyl)-N-pyridin-4-yl-benzamide], the IC50 against human ROCKα/ROCKII mix and at PKC epsilon was 0.5 to 5 µM each time.

Turning to `COc1ccc(OC)c(CNC(=O)CC(N)c2ccc(C(=O)Nc3ccncc3)cc2)c1` (centres unmarked) [Compound 242, 4-[1-Amino-2-(2,5-dimethoxy-benzylcarbamoyl)-ethyl]-N-pyridin-4-yl-benzamide], the IC50 against human ROCKα/ROCKII mix (setting [1]) fell in the range of 0.05 to 0.5 µM; on PKC epsilon (setting [1]), 0.5 to 5 µM.

`Cc1ccc(CC(=O)N2CCCC2C(N)c2ccc(C(=O)Nc3ccncc3)cc2)cc1` (centres unmarked) [Compound 525, 4-{Amino-[1-(2-p-tolyl-acetyl)-pyrrolidin-2-yl]-methyl}-N-pyridin-4-yl-benzamide]: the IC50 against human ROCKα/ROCKII mix and at PKC epsilon was 0.5 to 5 µM in each case.

For `NC(CC(=O)NCCc1c[nH]c2ccccc12)c1ccc(C(=O)Nc2ccncc2)cc1` (centres unmarked) [Compound 313, 4-{1-Amino-2-[2-(1H-indol-3-yl)-ethylcarbamoyl]-ethyl}-N-pyridin-4-yl-benzamide], the figures for the IC50 against human ROCKα/ROCKII mix (setting [1]) and at PKC epsilon (setting [1]) were 0.05 to 0.5 µM and 0.5 to 5 µM, respectively.

On to `NC(CNC(=O)C1(c2ccccc2)CC1)c1ccc(C(=O)Nc2ccncc2)cc1` (centres unmarked) [Compound 137, 4-{1-Amino-2-[(1-phenyl-cyclopropanecarbonyl)-amino]-ethyl}-N-pyridin-4-yl-benzamide], for which the values for the IC50 at human ROCKα/ROCKII mix (setting [2]) and on PKC epsilon (setting [2]) were 0.5 to 5 µM and 0.05 to 0.5 µM, respectively.

Turning to `CN(CC(N)c1ccc(C(=O)Nc2ccncc2)cc1)C(=O)C1CCSc2ccccc21` (centres unmarked) [Compound 517, Thiochroman-4-carboxylic acid {2-amino-2-{4-(pyridin-4-ylcarbamoyl)-phenyl]-ethyl}-methyl-amide], the IC50 against human ROCKα/ROCKII mix and on PKC epsilon was 5 to 50 µM throughout.

As for `NC(c1ccc(C(=O)Nc2ccncc2)cc1)C1CCCN1C(=O)C1(c2ccc(Cl)c(Cl)c2)CC1` (centres unmarked) [Compound 594, 4-(Amino-{1-[1-(3,4-dichloro-phenyl)-cyclopropanecarbonyl]-pyrrolidin-2-yl}-methyl)-N-pyridin-4-yl-benzamide], the IC50 against human ROCKα/ROCKII mix and on PKC epsilon was 0.5 to 5 µM in each case.

On to `NC(CC(=O)NC1CCc2ccccc21)c1ccc(C(=O)Nc2ccncc2)cc1` (centres unmarked) [Compound 228, 4-[1-Amino-2-(indan-1-ylcarbamoyl)-ethyl]-N-pyridin-4-yl-benzamide], for which the IC50 at human ROCKα/ROCKII mix (setting [1]) and at PKC epsilon (setting [1]) was 0.05 to 0.5 µM in each case.

In the case of `NC(c1ccc(C(=O)Nc2ccncc2)cc1)C1CCCN1C(=O)Cc1ccccc1` (centres unmarked) [Compound 521, 4-[Amino-(1-phenylacetyl-pyrrolidin-2-yl)-methyl]-N-pyridin-4-yl-benzamide], the results for the IC50 against human ROCKα/ROCKII mix and on PKC epsilon were 0.05 to 0.5 µM and 0.5 to 5 µM, respectively.

As for `CN(CC(N)c1ccc(C(=O)Nc2ccncc2)cc1)C(=O)C(C)(C)c1ccc(F)c(F)c1` (centres unmarked) [Compound 485, 4-(1-Amino-2-{[2-(3,4-difluoro-phenyl)-2-methyl-propionyl]-methyl-amino}-ethyl)-N-pyridin-4-yl-benzamide], the IC50 against human ROCKα/ROCKII mix and at PKC epsilon was 0.5 to 5 µM each time.

`CC(C)(C)c1ccc(CCNC(=O)CC(N)c2ccc(C(=O)Nc3ccncc3)cc2)cc1` (centres unmarked) [Compound 285, 4-{1-Amino-2-[2-(4-tert-butyl-phenyl)-ethylcarbamoyl]-ethyl}-N-pyridin-4-yl-benzamide]: the IC50 against human ROCKα/ROCKII mix (setting [1]) was in the range of 0.05 to 0.5 µM; at PKC epsilon (setting [1]), 5 to 50 µM.

For `NC(CNC(=O)c1csc(-c2ccccc2)n1)c1ccc(C(=O)Nc2ccncc2)cc1` (centres unmarked) [Compound 124, 2-Phenyl-thiazole-4-carboxylic acid {2-amino-2-[4-(pyridin-4-ylcarbamoyl)-phenyl]-ethyl}-amide], the IC50 is 0.5 to 5 µM at human ROCKα/ROCKII mix (setting [2]) and 5 to 50 µM on PKC epsilon (setting [2]).
